Data reported in patent US20180133211A1, “METHODS AND MATERIALS FOR PROMOTING BONE FORMATION” (Mayo Foundation for Medical Education and Research, priority 2015, published 2018).
pEC50: −log10 of the molar value.

Tests used:
Format in all cases: cell-based, mouse
MC3T3-E1 cells [1] = assay: Cell metabolic activity (EZ4U, MTT similar assay); conditions: 24 hours of treatment, read-out: half-maximal effective concentration (EC50), cell metabolic activity
Protocol: (§1) To assess cell metabolic activity, a commercially available, MTT similar assay (EZ4U; Biomedica, Vienna, Austria) was used. For this purpose, the cell lines were incubated with increasing concentrations of L- or DL-SFN.

MLO-Y4 cells [2] = assay: Cell metabolic activity (EZ4U, MTT similar assay); conditions: 24 hours of treatment, read-out: half-maximal effective concentration (EC50), cell metabolic activity
Protocol: as §1

RAW 264.7 cells [3] = assay: Cell metabolic activity (EZ4U, MTT similar assay); conditions: read-out: half-maximal effective concentration (EC50), cell metabolic activity
Protocol: as §1

MLO-Y4 cells [4] = assay: RT-qPCR mRNA expression; conditions: MLO-Y4, 3 μM
Protocol: (§2) Total RNA was extracted using the SV Total RNA Isolation kit (Promega) following the supplier's instructions. cDNA was synthesized from about 0.5 μg RNA using the First Strand cDNA Synthesis kit (Roche) as described by the supplier. The resulting cDNAs were subjected to quantitative PCR amplification with a real-time cycler using the QUANTITECT™ SYBR® Green PCR Kit (Qiagen, Hilden, Germany) for the genes Alpl, Fas, Lox, Tet1, Tet2, and TAQMAN® Gene expression Master Mix (Applied Biosystems, Foster City, Calif., USA) for measuring Runx2, Bglap2, Colla1, Tnfsf11, and 18S rRNA expression (for primers, see Table 1). SYBR-Green RT-qPCR was started with an initial denaturation step at 95° C. for 10 minutes and then continued with 45 cycles consisting of 30 seconds denaturation at 95° C., 30 seconds annealing at primer-specific temperatures, and extension at 72° C. For measurement of the TAQMAN® assays, an initial denaturation at 95° C. for 10 minutes was applied, followed by 45 cycles alternating 60 seconds at 60° C. and 15 seconds at 95° C. All RT-qPCR assays were performed in triplicate, and expression was evaluated using the comparative quantification method (Pfaffl, Nucleic Acids Res., 29:e45 (2001)).

RAW 264.7 cells [5] = assay: RT-qPCR mRNA expression; conditions: RAW 264.7, 3 μM
Protocol: as §2

MC3T3-E1 cells [6] = assay: Caspase activity (CASPASE-GLO); conditions: MC3T3-E1, 3 μM, 24 hours
Protocol: (§3) Caspase 3/7 and caspase 8 activities were measured by using the CASPASE-GLO® 3/7 and CASPASE-GLO® 8 assay Kit (Promega, Madison, Wis., USA) following manufactures instructions. Briefly, after treatments, cells were lysed, and substrate cleavage by caspases was measured by the generated luminescent signal with a 96 multi-well luminometer (Glomax, Promega). Each experiment was performed in quintuplicate and experiments were carried out twice.

MLO-Y4 cells [7] = assay: Caspase activity (CASPASE-GLO); conditions: MLO-Y4, 3 μM, 24 hours
Protocol: as §3

RAW 264.7 cells [8] = assay: Caspase activity (CASPASE-GLO); conditions: RAW 264.7, 3 μM, 24 hours
Protocol: as §3

MC3T3-E1 cells [9] = assay: ECM mineralization by Alizarin Red stain; conditions: MC3T3-E1, long-term treatment in osteogenic media
Protocol: Differentiation of MC3T3-E1 cells was induced with 50 μg/mL ascorbic acid (Sigma-Aldrich) and 5 mM β-glycerophosphate (Sigma-Aldrich) in medium containing 5% FBS. RAW 264.7 cells were cultured in Dulbecco's modified Eagle's medium (DMEM, Invitrogen, Carlsbad, Calif., USA) supplemented with 10% fetal bovine serum (Hyclone) and 2 mM glutamine (Gibco, Carlsbad, Calif., USA). Cells were seeded in culture dishes at a density of 20,000 cells/cm^2 and cultured overnight unless stated otherwise. Before cells were treated with compounds, the culture medium was changed.
Calvariae from 2 to 3-day-old and from 7-week old C57BL/6 mice were dissected aseptically. The calvarial bone explants were cultured in 48-well plates in α-MEM (Biochrom) containing 10% FCS (Biochrom), 50 μg/mL ascorbic acid (Sigma-Aldrich), 5 mM β-glycerophosphate (Sigma-Aldrich), and 10 μg/mL gentamicin (Sigma-Aldrich). The day after dissection, medium was changed, and a part of the explants was treated with 3 μM L- or DL-SFN for 12 days. Thereafter, one part of the calvariae were fixed for 1 hour in 4% para-formaldehyde (PFA), and mineralization was measured by Alizarin Red S stain (Sigma-Aldrich). For this purpose, Alizarin Red S dye was extracted using 10% cetylpyridinium chloride (CPC) in 10 mM sodiumphosphate (pH=7.0) for 45 minutes at room temperature. Alizarin Red S absorbance was measured at 562 nm in a multi-plate reader (Tecan, Maennedorf, Switzerland) and normalized to total protein amount measured by bicinchoninic acid assay (Thermo Fisher Scientific, Waltham, Mass., USA). From the other part of the calvariae, total RNA was extracted.

| SMILES | pEC50 (MC3T3-E1 cells [1]) | pEC50 (MLO-Y4 cells [2]) | pEC50 (RAW 264.7 cells [3]) | Fas mRNA expression (MLO-Y4 cells [4]; 8 hours) | expression of the pro-apoptotic gene Fas (RAW 264.7 cells [5]; 8 hours) | expression of the pro-apoptotic gene Fas (RAW 264.7 cells [5]; 16 hours) | activity of caspase 8 (MC3T3-E1 cells [6]) | activity of caspase 8 (MLO-Y4 cells [7]) | Caspase 8 and Caspase 3/7 activity (RAW 264.7 cells [8]) | ECM mineralization (MC3T3-E1 cells [9]) | mRNA expression for Tet1 or Tet2 (MLO-Y4 cells [4]) | Tnfsf11 mRNA expression (MLO-Y4 cells [4]; 3 and 8 days, significant only at 8 days) | Fas mRNA expression (MLO-Y4 cells [4]; 16 hours) | Tet1 mRNA levels (RAW 264.7 cells [5]; 8 and 16 hours, Tet2 not upregulated) | activities of the caspases 3/7 (MC3T3-E1 cells [6]) | activities of the caspases 3/7 (MLO-Y4 cells [7]) |
| --- | --- | --- | --- | --- | --- | --- | --- | --- | --- | --- | --- | --- | --- | --- | --- | --- |
| C[S+]([O-])CCCCN=C=S [L-SFN] | ~4.32 | ~4.96 | ~5.00 | not affected | not at 8 hours | up-regulated | significantly increased | significantly increased | stimulated | significantly increased | – | – | – | – | – | – |
| C[S+]([O-])CCCCN=C=S (racemic) [DL-SFN] | ~4.89 | ~5.22 | ~5.22 | not affected | not at 8 hours | up-regulated | significantly increased | significantly increased | stimulated | significantly increased | did not positively change | reduced | significantly increased | upregulated | significant increase | significant increase |
